In the test the target is T1, CIB1 and αIIb interaction (CIB1-GST : F-αIIb peptide) (Homo sapiens, UniProt Q99828).
T1 construct: made in house; host or cells: BL-21 plus RIL cells (E. coli)
T1 sequence (Q99828 1-191): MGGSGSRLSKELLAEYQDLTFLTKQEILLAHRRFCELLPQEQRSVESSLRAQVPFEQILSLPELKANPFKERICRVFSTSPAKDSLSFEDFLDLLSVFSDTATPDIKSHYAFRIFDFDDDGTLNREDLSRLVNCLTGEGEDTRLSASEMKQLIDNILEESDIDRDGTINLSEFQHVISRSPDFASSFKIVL
The experiment in a line: FP assay, 1536-well qHTS format (primary and confirmatory screen). The format is binding. The settings on record: for Efficacy (%): negative = inhibition; for Curve Class: negative sign = inhibitory curve; for IC50: read-out: IC50. On the technique in general: qHTS replaces the single test concentration by a dilution series.

The mark [1] stands for this setting: qHTS primary screen hits, Table S2.
Setting [2] is: qHTS primary screen of LOPAC/NPACT libraries.
Setting [3] is: qHTS primary screen hits, Table S2, several classes where COUNT > 1.

Where two headings read alike, the source gives them in different places.

By IC50 is commonly meant the concentration that inhibits the measured activity by half. Regarding `CN(C)c1cccc(N2CCN(c3nn4c(=O)c5ccccc5nc4s3)CC2)c1.Cl` [NCGC00187811-01], under setting [1], the “Efficacy (%)” value was -35%, the “Curve Class” value is on record as -2.4 and the IC50 was found to be 50.1 µM.

Take `COc1cc(Nc2ccc([N+](=O)[O-])cc2C(=O)O)cc2ccccc12` [NCGC00402240-03]: under setting [2], the “Efficacy (%)” value is recorded as -27%, the “Curve Class” value is -2.4 and the IC50 was 50.1 µM.

For the compound `CCCC1(CCC)CCC2(CCN(CCCN(CC)CC)C2)CC1.Cl` [NCGC00379163-01], under setting [2], the “Efficacy (%)” value is -32%, the “Curve Class” value was -2.4 and the 50% inhibitory concentration (IC50) was 79.4 µM.

With `N#CSc1cc(SC#N)c(N)nc1N` [NCGC00371134-01], under setting [2], the “Efficacy (%)” value is on record as -31%, the “Curve Class” value was -2.4 and the IC50 was 14.1 µM.

Turning to `CCCCCCCCCCCCCCCC[N+](C)(C)CC.[Br-]` [NCGC00166120-02], under setting [1], the “Efficacy (%)” value is reported as -45% and the IC50 was 89.1 µM. Under setting [3], the “Curve Class” value is reported as -3.

In the case of `Cl.Cl.Nc1ccc(/N=N/c2ccccc2)c(N)n1` [NCGC00018130-09], under setting [1], the “Efficacy (%)” value was -22%, the “Curve Class” value was -2.4 and the IC50 was 79.4 µM.

With `CCCCc1ncc(/C=C(\Cc2cccs2)C(=O)O)n1Cc1ccc(C(=O)O)cc1.CS(=O)(=O)O` [NCGC00261493-01], under setting [2], the “Efficacy (%)” value is -9%, the “Curve Class” value was -1.4 and the 50% inhibitory concentration (IC50) was 31.6 µM.

On to `O=C([O-])CCNc1cc(N2CCc3ccccc3CC2)nc(-c2ccccn2)n1.[Na+]` [NCGC00390406-01], for which, under setting [1], the “Efficacy (%)” value was -28%, the “Curve Class” value is -2.4 and the concentration for half-maximal inhibition (IC50) was 26.3 µM.

For `CC(C)(Sc1ccc(CCN(CCCCC2CCCCC2)C(=O)NC2CCCCC2)cc1)C(=O)O` [NCGC00015480-08], under setting [2], the “Efficacy (%)” value was -28%, the “Curve Class” value is on record as -1.4 and the IC50 worked out at 12.6 µM.

Turning to `CCC(=O)NC(c1ccco1)c1cc(Br)c2cccnc2c1O` (centres unmarked) [NCGC00183688-01], under setting [1], the “Efficacy (%)” value is recorded as -28%, the “Curve Class” value is on record as -2.4 and the half-inhibitory concentration (IC50) was determined as 56.2 µM.

As for `COc1ccc(C2CC(=O)Nc3nc(N4CCCCC4)sc32)c(OC)c1.O=C(O)C(F)(F)F` (centres unmarked) [NCGC00488246-02], under setting [1], the “Efficacy (%)” value was -89% and the IC50 is 56.2 µM. Further, the “Curve Class” value under setting [3] is -2.3.

For `Cc1cnc(-c2ccccc2C(C)C)nc1NC(C)c1ccc(-c2cccnc2)cc1.O=C(O)C(F)(F)F` (centres unmarked) [NCGC00253889-01], under setting [1], the “Efficacy (%)” value is -56%, the “Curve Class” value is -2.4 and the IC50 was 56.2 µM.

In the case of `Cc1ccc(S(=O)(=O)Nc2ccc(O)c3ccccc23)c(C)c1.O=C(O)C(F)(F)F` [NCGC00273983-01], under setting [1], the “Efficacy (%)” value is reported as -34% and the 50% inhibitory concentration (IC50) was found to be 56.2 µM. For the same compound, under setting [3], the “Curve Class” value is recorded as -2.4.

With `CS(=O)(=O)O.CSc1ccc2c(c1)C(N1CCN(C)CC1)Cc1ccccc1S2` (centres unmarked) [NCGC00024665-06], under setting [2], the “Efficacy (%)” value is given as -28%, the “Curve Class” value was -2.4 and the IC50 turned out to be 56.2 µM.

In the case of `CC(=O)O.Cc1cc2c(C(C)C)c(O)c(O)c(C=O)c2c(O)c1-c1c(C)cc2c(C(C)C)c(O)c(O)c(C=O)c2c1O` [NCGC00016423-14], where the note is “qHTS FP screen hits, Table S2”, the “Efficacy (%)” value is listed as -64% and the concentration for half-maximal inhibition (IC50) worked out at 29.4 µM.

Take `Cl.O=C(CCCCCN1CCN(c2ccccc2-c2ccccc2)CC1)NC1CCCc2ccccc21` (centres unmarked) [NCGC00186032-01]: under setting [2], the “Efficacy (%)” value is listed as -13%, the “Curve Class” value is -1.2 and the IC50 amounted to 25.1 µM.

Take `Cc1cc(Cn2cnc3c2C[C@@H](C(=O)O)N(C(=O)C(c2ccccc2)c2ccccc2)C3)ccc1N` [NCGC00162092-02]: under setting [2], the “Efficacy (%)” value is -10%, the “Curve Class” value is on record as -1.4 and the IC50 came out at 10 µM.

Regarding `Fc1ccc(C(c2ccc(F)cc2)N2CCN(C/C=C/c3ccccc3)CC2)cc1` [NCGC00018102-06], under setting [1], the “Efficacy (%)” value is reported as -167%, the “Curve Class” value is on record as -2.1 and the IC50 amounted to 19.2 µM.

On to `COc1cccc2c1C(=O)c1c(O)c3c(c(O)c1C2=O)C[C@@](O)(C(=O)CO)C[C@@H]3O[C@H]1C[C@H](N)[C@@H](O)[C@H](C)O1` [NCGC00263918-04], for which, under setting [1], the “Efficacy (%)” value is -58% and the 50% inhibitory concentration (IC50) was found to be 18.5 µM.

Regarding `CC/C(=C(/CC)c1ccc(O)cc1)c1ccc(O)cc1` [NCGC00090749-11], under setting [1], the “Efficacy (%)” value is listed as -29% and the half-inhibitory concentration (IC50) stood at 42.9 µM. For the same compound, the “Curve Class” value under setting [3] is listed as -2.4.

Regarding `CC(C)c1ccc2c(c1)c(SC(C)(C)C)c(CC(C)(C)C(=O)O)n2Cc1ccc(Cl)cc1` [NCGC00162249-03], under setting [2], the “Efficacy (%)” value is recorded as -29%, the “Curve Class” value was -1.4 and the 50% inhibitory concentration (IC50) amounted to 15.8 µM.

On to `O=C(Nc1cccc(C(=O)Nc2ccc(S(=O)(=O)O)c3cc(S(=O)(=O)O)cc(S(=O)(=O)O)c23)c1)Nc1cccc(C(=O)Nc2ccc(S(=O)(=O)O)c3cc(S(=O)(=O)O)cc(S(=O)(=O)O)c23)c1` [NCGC00025069-04], for which, under setting [2], the “Efficacy (%)” value is given as -37%, the “Curve Class” value is listed as -1.4 and the IC50 came out at 0.316 µM.

`Oc1cccc(C2=C3C=CC(=N3)C(c3cccc(O)c3)=C3C=CC(=N3)C(c3cccc(O)c3)=C3CCC(=N3)C(c3cccc(O)c3)=C3C=CC2=N3)c1` [NCGC00183015-01]: under setting [1], the “Efficacy (%)” value was -29% and the IC50 was determined as 50.1 µM. Further, under setting [3], the “Curve Class” value is -2.4.

For `Cc1ccc(NS(=O)(=O)c2ccc3[nH]c(=O)[nH]c3c2)cc1C.O=C(O)C(F)(F)F` [NCGC00187759-01], under setting [1], the “Efficacy (%)” value is recorded as -68%, the “Curve Class” value is -2.4 and the concentration for half-maximal inhibition (IC50) came out at 4 µM.

`CCCCCCCCOc1ccccc1C(=O)Nc1ccc(C(=O)OCC[N+](C)(CC)CC)cc1.[Br-]` [NCGC00163507-03]: where the note is “qHTS FP screen hits, Table S2”, the “Efficacy (%)” value was -39% and the IC50 is 22.4 µM. Moreover, the “Curve Class” value (qHTS FP screen hits, Table S2, one class per curve where COUNT > 1) is recorded as -1.2.

`Oc1cc(Cl)ccc1Oc1ccc(Cl)cc1Cl` [NCGC00159417-06]: under setting [1], the “Efficacy (%)” value is listed as -22%, the “Curve Class” value is on record as -2.4 and the concentration for half-maximal inhibition (IC50) came out at 100 µM.

Take `C=C1C(=O)OC2/C=C(\C)CC/C=C(\C)CC(OC(C)=O)C12` (centres unmarked) [NCGC00385946-01]: under setting [2], the “Efficacy (%)” value is given as -21%, the “Curve Class” value was -1.4 and the IC50 is 11.2 µM.

As to `CC(C)(C)OC(=O)c1csc(-n2nc(-c3ccc(F)c(F)c3)c(-c3ccccc3)c2O)n1.O=C(O)C(F)(F)F` [NCGC00356364-01], under setting [1], the “Efficacy (%)” value is on record as -24%, the “Curve Class” value was -2.4 and the IC50 was 56.2 µM.

In the case of `Nc1ccncc1N` [NCGC00167560-02], under setting [1], the “Efficacy (%)” value is -26% and the concentration for half-maximal inhibition (IC50) amounted to 79.4 µM. In addition, the “Curve Class” value under setting [3] is reported as -2.4.

For the compound `Nc1ccc2c3c(cccc13)C(=O)NC2=O` [NCGC00015035-07], under setting [1], the “Efficacy (%)” value is reported as -70%, the “Curve Class” value is given as -1.2 and the IC50 came to 2.5 µM.

On to `Cc1ccc(S(=O)(=O)Nc2cc(S(=O)(=O)c3ccc(C)cc3)c(O)c3cccnc23)cc1` [NCGC00161699-01], for which, under setting [1], the “Efficacy (%)” value is -29% and the concentration for half-maximal inhibition (IC50) is 50.1 µM. Under setting [3], the “Curve Class” value is -2.4.

In the case of `C[N+](C)(C)CC(=O)O.[Cl-]` [NCGC00015150-04], under setting [1], the “Efficacy (%)” value is -24% and the half-inhibitory concentration (IC50) turned out to be 56.2 µM. The “Curve Class” value under setting [3] was -2.4.

Turning to `CCCCCN(CCCCC)C(=O)C(CCC(=O)O)NC(=O)c1ccc(Cl)c(Cl)c1` (centres unmarked) [NCGC00162232-03], under setting [2], the “Efficacy (%)” value was -19%, the “Curve Class” value is reported as -2.2 and the concentration for half-maximal inhibition (IC50) is 44.7 µM.

On to `COc1cccc(CNC(=O)C2=NC3SC=C(COCc4ccc(C(=O)O)cc4)C3C(=O)N2)c1` (centres unmarked) [NCGC00488702-01], for which, under setting [2], the “Efficacy (%)” value is -27%, the “Curve Class” value is on record as -1.4 and the IC50 is 5.6 µM.

Consider `CCCCC1(C2CCCC2)Cc2cc(OCC(=O)O)c(Cl)c(Cl)c2C1=O` (stereo in doubt) [NCGC00093872-03], for which, under setting [1], the “Efficacy (%)” value is -41%, the “Curve Class” value is recorded as -2.2 and the IC50 stood at 44.7 µM.

In the case of `CCC(C)CC(=O)OC1C(=O)C(CO)=CC(O)C1C(C)C` (centres unmarked) [NCGC00381331-01], under setting [2], the “Efficacy (%)” value is given as -22%, the “Curve Class” value was -2.4 and the half-maximal inhibitory concentration (IC50) was determined as 56.2 µM.

As to `Oc1c(Br)cc(Br)c2cccnc12` [NCGC00094815-05], the “Efficacy (%)” value under setting [1] is recorded as -41%. For the same compound, the “Curve Class” value under setting [3] is on record as -2.2.

For `Cc1c(C)c2c(c(C)c1OC(=O)CCC(=O)OCCO)CC[C@@](C)(CCC[C@H](C)CCC[C@H](C)CCCC(C)C)O2` [NCGC00183103-01], under setting [1], the “Efficacy (%)” value is on record as -36% and the half-maximal inhibitory concentration (IC50) amounted to 79.4 µM. In addition, under setting [3], the “Curve Class” value is given as -3.

As to `O=c1c(-c2ccc(O)cc2)coc2cc(O)ccc12` [NCGC00261097-01], under setting [2], the “Efficacy (%)” value was -11%, the “Curve Class” value was -2.4 and the IC50 came to 56.2 µM.

Take `O=C(Nc1ccc(S(=O)(=O)N2CCOCC2)cc1)c1cc(Cl)ccc1NS(=O)(=O)c1ccc(Cl)s1` [NCGC00249417-02]: where the note is “qHTS FP screen hits, Table S2”, the “Efficacy (%)” value is given as -34% and the IC50 is 40.9 µM.

As to `CN(NC(=O)CC(=O)NN(C)C(=S)c1ccccc1)C(=S)c1ccccc1` [NCGC00183656-09], under setting [2], the “Efficacy (%)” value is on record as -33%, the “Curve Class” value is -2.4 and the IC50 was 35.5 µM.

These data come from article PMC11249646, “Small-Molecule Disruptors of the Interaction between Calcium- and Integrin-Binding Protein 1 and Integrin αIIbβ3 as Novel Antiplatelet Agents” (ACS Pharmacology & Translational Science, 2024).
